Test results as given in patent US20250144050A1, “AMINOTHIOL-CONJUGATES, COMPOSITIONS, AND METHODS OF USE THEREOF” (THE BURLINGTON HC RESEARCH GROUP, INC., priority 2021, published 2025).

Columns and labels:
Storage stability = format: physicochemical
Experimental: The solubility of 4SP65 was tested in de-ionized water, PBS, DMSO, and RPMI or DMEM base medium with and without FBS. […] The difference in the starting weight of drug placed into solvent minus the weight of the residue after drying on a vacuum pump was considered to represent the amount of drug that went into solution. The amount of drug that was dissolved at a given time ranged from 40 to 61%, averaging 49.7±8.1% (SD). The weight of the 4SP65 in solution was then used for diluting the drug to concentrations of 200 or 400 μM in supplemented RPMI or DMEM/F12 medium for routine treatment of cells. The dried residue was not used in the in vitro drug efficacy studies. […] However, unintended topical entanglements between polymer chains of multi-arm PEG-thiol molecules without disulfide formation have been reported (Tang and Olsen, “Controlling Topological Entanglement in Engineered Protein Hydrogels with a Variety of Thiol Coupling Chemistries,” Front. Chem. 2:23 (2014), which is hereby incorporated by reference in its entirety). Aliquots of 4SP65 dissolved in FBS enriched medium has remained stable for >6 months while remnants of the original viscous polymer have maintained stability without any apparent loss of activity when stored for 60 months at −20° C.
The boc deprotected aminothiol conjugated to m-PEG6-thiol was dried on a vacuum pump overnight to yield a viscous oil that on analysis gave rise to spectra corresponding to 1LP65 as a di-trifluroacetic acid salt at a MW of 672.87 Da (FIG. 15), or a MW of 483 once dissolved in solution. As such, 1LP65 is soluble 100% DMSO or aqueous solution. However, the bulk of the product was dissolved at 40 mM in DMSO and stored in aliquots at −80° C. for future use once by further dilution in DMSO and then final dilution in medium for treatment of normal human epithelium and human cancer cell lines at working solutions of 4 mM or 400 μM drug. […]

MDA-MB-231 cells = experiment: CyQUANT cell viability assay, 48-hour exposure; format: cell-based, human
Experimental: After drug treatments, fluorescence readings from 96-well plates were obtained using the CyQUANT dye and compared to standard curves for each cell line to determine cell viability. […] Trypan blue exclusion was used to estimate cell numbers in a few pilot experiments and was thereafter applied to confirm cell death.
A series of experiments was conducted to assess the relative efficacy of 4SP65, 1LP65, and amifostine as single agents in the same human cancer cell lines. First, the effectiveness of 4SP65 was tested against 15 cancer cell lines derived from seven tissues. […] The effectiveness of 0 to ≤500 μM amifostine was tested in sets of cancer cell lines reported to have either medium, high, or no expression of alkaline phosphatase.
Trans. R Soc. Lond. […] Using cell numbers based on fluorescence measurements and standard curves [time zero, (Tz), control growth, (C), and test growth in the presence of drug at five or more concentration levels (Ti)], the percentage growth was calculated at each drug concentration level. The percentage of growth inhibition was calculated as follows:
The LC50/99 was calculated using Equation 2=−50 and Eq. 2=−99, respectively. […] For NHMECs, the relationships between drug exposure levels and fluorescence units were used to define dose-response metrics. The selectivity index (SI) values for individual drug treatments were calculated as IC50 levels in NHMECs divided by the IC50 values in cancer cell lines.

Vero cells = experiment: Dose-response metrics in immortalized, non-tumorigenic cells; format: cell-based
Experimental: To determine potential cytostatic or cytocidal effects of BRG prodrugs in immortalized, non-tumorigenic cells, Vero, HEK-293t, LP9, and HPM3 cells were exposed to 4SP65 while only Vero cells also were treated with 1LP65. […] Comparisons across other dose-response metrics could not be made because such levels of effects were not induced in NHMECs exposed to 4SP65. […] Since cytostatic and cytolytic effects at the TGI and LC50/99 levels were induced in Vero cells exposed to 1LP65 but not in NHMECs, there is a significant difference in the effects of 1LP65 in Vero cells compared to NHMECs, but p values based upon t-test evaluations cannot be defined due to lack of numerical data.

Molecule | time remained stable (Storage stability; dissolved in FBS enriched medium) [months] | time stability maintained without apparent loss of activity (Storage stability; original viscous polymer stored at −20° C.) [months] | selectivity index (MDA-MB-231 cells; IC50 of 76 in most sensitive NHMEC strain / IC50 in MDA-MB-231) | CC50 (Vero cells) [µM] | GI50 (Vero cells; VERO) [µM] | LC99 (Vero cells; VERO) [µM] | TGI (Vero cells; VERO) [µM] | time stability maintained (Storage stability; frozen aliquots, 40 mM in DMSO at −80° C.) | GI50 (MDA-MB-231 cells; Homo sapiens, MDA-MB-231 cells, 48 hours) [µM] | GI50 (Vero cells; Chlorocebus sabaeus, Vero) [µM]
4-star PEG-S-S-WR1065 [4SP65] | > 6 | 60 | > 16 | 11.6 ± 6.3 | 2.9 ± 1.4 | 14.0 ± 9.9 | 6.4 ± 2.6 |  |  | 
COCCOCCOCCOCCOCCOCCSSCCNCCCN [1LP65, m-PEG6-S-S-WR1065] |  |  |  |  |  | 183.4 ± 6.2 | 82.8 ± 2.9 | six | 41.8 | 46.6 ± 2.6
